The subject of one test is PLCPRF5. Kind of test: In vitro human tumor cell line cytotoxicity assay. It counts as cell-based. As to conditions: for IC50: Homo sapiens.
For a further test, the system named is LIXC012. Kind of test: In vitro human tumor cell line cytotoxicity assay. It counts as cell-based. As to conditions: for IC50: Homo sapiens.
Test [1] concerns HepG2-GFP human hepatocellular carcinoma. Kind of test: Orthotopic mouse model of human liver cancer, tumor burden. The class given is in vivo, athymic nude mice. Conditions: for tumor inhibition rate IR(%): from final average tumor weights. Here is the method: Female athymic nude mice (6 weeks of age) were used in this study. The animals were purchased from Beijing HFK Bioscience, Co., Ltd and maintained in a High Efficiency Particulate Air Filter (HEPA) filtered environment with cages, food, and bedding sterilized by irradiation or autoclaving. A total of 32 nude mice were used for the study. HepG2-GFP human hepatocellular carcinoma cells (AntiCancer, Inc., San Diego, CA) were incubated with RPMI-1640 (Gibco-BRL, Life Technologies, Inc.), which contained 10% FBS. Cells were grown in a CO2 Water Jacketed Incubator (Forma Scientific) maintaining 37°C and a 5% CO2/95% air atmosphere. Cell viability was determined by trypan blue exclusion analysis. Five female athymic nude mice were injected subcutaneously with a single dose of 5 x 10^6 HepG2-GFP cells. Tumors were harvested when their size reached 1cm^3 and the tumor tissues were then cut into small fragments of 1mm^3. Forty female nude mice were implanted orthotopically with a single piece of tumor fragment, which was derived from a subcutaneous tumor model of HepG2-GFP human hepatocellular carcinoma. The tumor tissue was orthotopically implanted in the right lobe of the liver in each mouse by SOI (Surgical Orthotopic Implantation). Briefly, an upper abdominal incision of 1cm was made under anesthesia. Right lobe of the liver was exposed and a part of the liver surface was injured mechanically by scissors. Then a piece of tumor fragment was fixed within the liver tissue, the liver was returned to the peritoneal cavity and the abdominal wall finally closed. Mice were kept in laminar-flow cabinets under specific pathogen-free-conditions.
Treatment was started three days after tumor implantation when the implanted tumors reached an average size of around 1 mm^2. The 32 tumor-bearing mice were randomly divided into four experimental groups of 8 mice each. Each cage was clearly marked for its group with four mice per cage. […] Table. Groups and treatment protocol
During the period of the study, all of the experimental mice were checked daily for mortality or signs of morbidity. […] The body weights of the mice were measured twice weekly during the study period. Images of tumor growth and progression were acquired twice a week during the period of the study with the FluorVivo imaging system, Model 300/Mag (INDEC, CA, USA). […] Livers were exposed for imaging, after which the tumors were removed and weighted with an electronic balance (Sartorius BS 124 S, Germany). Tumor tissues were kept in formalin for further analysis. Comparisons of body weights and tumor burdens in different groups were analyzed using the Student's t-test with an α = 0.05 (two-sided). After intravenously injection of the test agents, the mice had no lying, no autonomous activity reduction. The experimental animals were generally in good condition. Table. Comparison of mean mice body weight at the end of the study
The progressions of orthotopic HepG2-GFP hepatocellular carcinoma in different groups were monitored by real time imaging. Images were acquired twice a week. Typical tumor images at the end of the study in each group and tumor growth curves derived from the signals of tumor fluorescence, which were analyzed using the Power Station software (INDEC Biosystems, CA, USA), are shown in figure 6 and figure 7, respectively Table. Average tumor size in each group (mm2)

Several values for one entry are separate records, joined by “and”; a condition that tells them apart may be missing. Equal entries are not always repeated. Where two headings read alike, the source gives them in different places.

`C[C@H](OP(=O)(N1CC1)N1CC1)c1ccc([N+](=O)[O-])c(Oc2cccc(C(=O)N(C)C)c2)c1` (single isomer, unassigned) [TH3424]: the “Max Inhibition%” value in the test with PLCPRF5 was 85.2%; in the test with LIXC012 it was 82.8%. Besides, the “Min Inhibition%” value in the test with PLCPRF5 amounted to 1.4%; in the test on LIXC012 it was 4.1%. Further, the IC50 in the test with PLCPRF5 (PLC-PRF-5, read-out: AbsIC50) turned out to be 111 nM; in the test with PLCPRF5 (PLC-PRF-5, read-out: RelIC50), 128 nM; in the test on LIXC012 (read-out: AbsIC50), 17.5 nM; with LIXC012 (read-out: RelIC50), 11.2 nM. For the same molecule, the “Tumor area (mm^2) (mean ± sd)” value in test [1] (2.5mg/kg, QWx6, I.P., Day 35) was 1.2 ± 1.1 mm^2 and 1.2 ± 1.1(Day 35) mm^2; in test [1] (2.5mg/kg, QWx6, I.P., Day 49), 2.0 ± 2.2 mm^2 and 2.0 ± 2.2(Day 49) mm^2; in test [1] (5mg/kg, QWx3, I.P.) it was 0 mm^2 and 0.0 ± 0.0 mm^2. The “Tumor weight (g) (mean ± sd)” value in test [1] (2.5mg/kg, QWx6, I.P., Day 49) is 0.0081±0.0088 g and 0.0081±0.0088 (Day 49) g; in test [1] (5mg/kg, QWx3, I.P.) it was 0 g and 0.0000 ± 0.0000 g. Further, the “average fluorescence imaging readout area as % of that in the negative control group” value in test [1] (2.5 mg/kg, day 35) is listed as “around 8%”; in test [1] (2.5 mg/kg, day 49 after treatment), “around 8%”. Besides, the “tumor inhibition rate IR(%)” value in test [1] (2.5 mg/kg) came out at 94.8%; in test [1] (5mg/kg), 100%. The “average tumor weight as % of that in the negative control group” value turned out to be 0% in test [1] (high dose group, 5mg/kg) and 5.2% in test [1] (low dose group, 2.5mg/kg).

The record behind these values is EP3390415B1, “(R)- AND (S)-1-(3-(3-N,N-DIMETHYLAMINOCARBONYL)PHENOXYL-4-NITROPHENYL)-1-ETHYL-N,N'-BIS (ETHYLENE)PHOSPHORAMIDATE, COMPOSITIONS AND METHODS FOR THEIR USE AND PREPARATION” (OBI PHARMA, INC., priority 2015, dated 2017).
